# Assays:
# [1] = molecular target: Collagenase 3 (Homo sapiens) (UniProt P45452); conditions: Compound concentration 10.0 uM
# [2] = molecular target: Vasopressin V1a receptor (Homo sapiens) (UniProt P37288)
# [3] = molecular target: Calcium/calmodulin-dependent protein kinase type IV (Homo sapiens) (UniProt Q16566); assay: CAMK4 Invitrogen Lab (UK) kinase screen (BI); conditions: Compound concentration 1.0 uM
# [4] = molecular target: Interferon-induced, double-stranded RNA-activated protein kinase (Homo sapiens) (UniProt P19525); conditions: Compound concentration 1.0 uM
# [5] = molecular target: Sodium-dependent dopamine transporter (Homo sapiens, UniProt Q01959); conditions: Compound concentration 10.0 uM
# [6] = molecular target: Muscarinic acetylcholine receptor M2 (Homo sapiens) (UniProt P08172); conditions: Compound concentration 10.0 uM
# [7] = system: Serine/threonine-protein kinase B-raf (Homo sapiens), P15056 [V600E]; assay: BRAF V599E Invitrogen Lab (UK) kinase screen (BI); conditions: Compound concentration 10.0 uM
# [8] = molecular target: Ephrin type-A receptor 2 (Homo sapiens) (UniProt P29317)
# Chain of Ephrin type-A receptor 2 (Homo sapiens) (P29317 whole entry): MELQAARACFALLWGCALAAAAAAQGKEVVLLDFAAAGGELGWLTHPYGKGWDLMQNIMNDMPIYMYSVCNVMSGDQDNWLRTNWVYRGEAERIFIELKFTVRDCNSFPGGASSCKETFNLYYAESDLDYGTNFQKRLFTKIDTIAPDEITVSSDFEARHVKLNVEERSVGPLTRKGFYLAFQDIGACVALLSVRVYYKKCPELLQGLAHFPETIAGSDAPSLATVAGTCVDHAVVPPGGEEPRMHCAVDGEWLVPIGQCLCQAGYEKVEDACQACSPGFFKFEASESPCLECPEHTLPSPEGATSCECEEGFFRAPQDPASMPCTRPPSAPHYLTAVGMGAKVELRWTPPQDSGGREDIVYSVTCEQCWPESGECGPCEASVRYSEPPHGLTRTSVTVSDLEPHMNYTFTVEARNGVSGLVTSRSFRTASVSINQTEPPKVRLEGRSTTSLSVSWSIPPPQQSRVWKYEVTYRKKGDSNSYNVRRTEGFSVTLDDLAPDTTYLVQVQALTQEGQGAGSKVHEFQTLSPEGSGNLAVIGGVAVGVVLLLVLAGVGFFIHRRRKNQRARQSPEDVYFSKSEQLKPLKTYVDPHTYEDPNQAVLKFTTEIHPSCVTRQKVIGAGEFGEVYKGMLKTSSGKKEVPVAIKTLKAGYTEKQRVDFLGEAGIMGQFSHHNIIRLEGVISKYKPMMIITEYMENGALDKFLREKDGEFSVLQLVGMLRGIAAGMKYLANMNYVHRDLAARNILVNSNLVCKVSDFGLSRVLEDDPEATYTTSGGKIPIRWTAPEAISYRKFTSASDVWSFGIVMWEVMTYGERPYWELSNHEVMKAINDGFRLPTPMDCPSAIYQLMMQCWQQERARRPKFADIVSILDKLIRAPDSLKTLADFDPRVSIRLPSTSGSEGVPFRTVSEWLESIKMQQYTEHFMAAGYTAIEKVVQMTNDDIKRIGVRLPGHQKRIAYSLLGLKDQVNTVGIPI
# [9] = molecular target: Serine/threonine-protein kinase WNK1 (Homo sapiens) (UniProt Q9H4A3); conditions: Compound concentration 1.0 uM
# [10] = molecular target: Proto-oncogene tyrosine-protein kinase ROS (Homo sapiens) (UniProt P08922); conditions: Compound concentration 1.0 uM
# [11] = molecular target: Endothelin-converting enzyme 1 (Homo sapiens) (UniProt P42892); conditions: Compound concentration 10.0 uM
# [12] = molecular target: Serine/threonine-protein kinase MARK2 (Homo sapiens) (UniProt Q7KZI7)
# Chain of Serine/threonine-protein kinase MARK2 (Homo sapiens) (Q7KZI7 whole entry): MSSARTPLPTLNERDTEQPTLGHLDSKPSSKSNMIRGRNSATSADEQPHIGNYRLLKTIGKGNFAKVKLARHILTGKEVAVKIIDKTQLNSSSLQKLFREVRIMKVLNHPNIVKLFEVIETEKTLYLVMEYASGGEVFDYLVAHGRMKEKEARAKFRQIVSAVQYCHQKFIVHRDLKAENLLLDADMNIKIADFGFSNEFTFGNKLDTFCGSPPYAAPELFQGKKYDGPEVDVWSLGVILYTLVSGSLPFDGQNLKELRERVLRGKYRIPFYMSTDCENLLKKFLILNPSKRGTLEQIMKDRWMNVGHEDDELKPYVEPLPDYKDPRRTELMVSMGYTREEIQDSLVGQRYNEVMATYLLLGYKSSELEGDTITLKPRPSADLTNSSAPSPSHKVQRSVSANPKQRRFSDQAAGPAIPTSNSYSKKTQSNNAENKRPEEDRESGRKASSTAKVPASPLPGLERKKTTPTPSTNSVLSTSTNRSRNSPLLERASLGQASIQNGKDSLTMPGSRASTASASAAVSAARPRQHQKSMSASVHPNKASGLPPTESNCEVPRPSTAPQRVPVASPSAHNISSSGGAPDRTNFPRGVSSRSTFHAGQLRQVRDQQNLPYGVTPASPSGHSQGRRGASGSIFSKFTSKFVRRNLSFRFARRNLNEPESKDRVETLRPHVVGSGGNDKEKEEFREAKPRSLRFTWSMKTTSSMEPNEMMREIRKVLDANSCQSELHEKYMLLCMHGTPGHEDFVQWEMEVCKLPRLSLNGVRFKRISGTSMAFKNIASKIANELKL
# [13] = molecular target: Serine/threonine-protein kinase 3 (Homo sapiens) (UniProt Q13188); conditions: Compound concentration 10.0 uM
# [14] = molecular target: Ribosomal protein S6 kinase alpha-2 (Homo sapiens) (UniProt Q15349); conditions: Compound concentration 1.0 uM
# [15] = molecular target: Serine/threonine-protein kinase tousled-like 2 (Homo sapiens) (UniProt Q86UE8); conditions: Compound concentration 1.0 uM
# [16] = molecular target: Muscarinic acetylcholine receptor (Rattus norvegicus) (UniProt P08482+P08483+P08485+P08911+P10980); conditions: Compound concentration 10.0 uM
# [17] = molecular target: 5-hydroxytryptamine receptor 2B (Homo sapiens) (UniProt P41595); conditions: Compound concentration 10.0 uM
# [18] = molecular target: Tyrosine-protein kinase ABL1 (Homo sapiens) (UniProt P00519)
# Chain of Tyrosine-protein kinase ABL1 (Homo sapiens) (P00519 whole entry): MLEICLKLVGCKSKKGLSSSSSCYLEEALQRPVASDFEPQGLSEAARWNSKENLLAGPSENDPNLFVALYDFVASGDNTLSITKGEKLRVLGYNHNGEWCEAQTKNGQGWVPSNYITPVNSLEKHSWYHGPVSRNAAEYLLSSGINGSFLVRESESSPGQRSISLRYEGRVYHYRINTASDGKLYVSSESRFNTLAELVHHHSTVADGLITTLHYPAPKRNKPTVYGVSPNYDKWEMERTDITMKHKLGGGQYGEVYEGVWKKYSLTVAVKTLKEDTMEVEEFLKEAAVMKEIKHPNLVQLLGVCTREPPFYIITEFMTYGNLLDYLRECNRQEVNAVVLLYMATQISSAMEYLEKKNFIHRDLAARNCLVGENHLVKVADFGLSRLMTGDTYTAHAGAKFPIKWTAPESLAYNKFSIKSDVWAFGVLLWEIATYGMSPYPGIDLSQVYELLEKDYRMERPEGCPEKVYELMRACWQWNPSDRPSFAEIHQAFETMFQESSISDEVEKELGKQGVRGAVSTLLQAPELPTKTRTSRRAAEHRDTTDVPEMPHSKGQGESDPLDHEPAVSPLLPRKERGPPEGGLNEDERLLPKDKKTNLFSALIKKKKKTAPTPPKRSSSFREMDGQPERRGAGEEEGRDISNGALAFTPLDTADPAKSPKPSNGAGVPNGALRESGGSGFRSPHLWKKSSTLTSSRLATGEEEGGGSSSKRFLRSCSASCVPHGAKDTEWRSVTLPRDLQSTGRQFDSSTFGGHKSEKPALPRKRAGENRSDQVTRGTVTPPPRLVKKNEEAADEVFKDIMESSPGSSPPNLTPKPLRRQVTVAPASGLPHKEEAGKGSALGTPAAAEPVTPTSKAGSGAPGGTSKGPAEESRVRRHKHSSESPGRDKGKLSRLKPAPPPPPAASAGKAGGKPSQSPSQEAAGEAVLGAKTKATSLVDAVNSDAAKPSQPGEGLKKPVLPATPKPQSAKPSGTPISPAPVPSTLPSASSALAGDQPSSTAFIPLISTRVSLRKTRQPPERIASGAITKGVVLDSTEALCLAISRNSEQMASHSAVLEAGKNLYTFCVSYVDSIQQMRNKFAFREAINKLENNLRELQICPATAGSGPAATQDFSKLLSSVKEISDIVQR
# [19] = molecular target: Mitogen-activated protein kinase 15 (Homo sapiens) (UniProt Q8TD08); assay: ERK8 DUNDEE kinase screen (BI); conditions: Compound concentration 10.0 uM
# [20] = molecular target: Serine/threonine-protein kinase WNK2 (Homo sapiens) (UniProt Q9Y3S1); assay: WNK2 Invitrogen Lab (UK) kinase screen (BI); conditions: Compound concentration 1.0 uM
# [21] = molecular target: Serine/threonine-protein kinase PLK4 (Homo sapiens) (UniProt O00444); conditions: Compound concentration 1.0 uM
# [22] = molecular target: Phosphodiesterase 4 (Homo sapiens) (UniProt P27815+Q08499+Q07343+Q08493); assay: PDE-IV/HU Eurofins SafetyScreen44 (BI); assay type: protein assay; conditions: Compound concentration 10.0 uM
# [23] = molecular target: Tyrosine-protein kinase JAK2 (Homo sapiens) (UniProt O60674); conditions: Compound concentration 1.0 uM
# [24] = molecular target: Calcium/calmodulin-dependent protein kinase type II subunit beta (Homo sapiens) (UniProt Q13554); conditions: Compound concentration 1.0 uM
# [25] = molecular target: Tyrosine-protein kinase JAK1 (Homo sapiens) (UniProt P23458); conditions: Compound concentration 1.0 uM
# [26] = molecular target: B1 bradykinin receptor (Homo sapiens) (UniProt P46663)
# [27] = molecular target: Mu-type opioid receptor (Homo sapiens) (UniProt P35372); conditions: Compound concentration 10.0 uM
# [28] = molecular target: Serine/threonine-protein kinase PAK 6 (Homo sapiens) (UniProt Q9NQU5); conditions: Compound concentration 1.0 uM
# [29] = molecular target: Rhodopsin kinase GRK7 (Homo sapiens) (UniProt Q8WTQ7); conditions: Compound concentration 1.0 uM
# [30] = system: Receptor-type tyrosine-protein kinase FLT3 (Homo sapiens), P36888 [UNDEFINED MUTATION]; conditions: Compound concentration 1.0 uM
# [31] = molecular target: Serine/threonine-protein kinase MRCK beta (Homo sapiens) (UniProt Q9Y5S2); assay: CDC42 BPB Invitrogen Lab (UK) kinase screen (BI); conditions: Compound concentration 1.0 uM
# [32] = molecular target: Calcium/calmodulin-dependent protein kinase type 1D (Homo sapiens) (UniProt Q8IU85); conditions: Compound concentration 1.0 uM
# [33] = molecular target: Interleukin-1 receptor-associated kinase 1 (Homo sapiens) (UniProt P51617); conditions: Compound concentration 1.0 uM
# [34] = molecular target: Aurora kinase B (Homo sapiens) (UniProt Q96GD4); conditions: Compound concentration 1.0 uM
# [35] = molecular target: Delta-type opioid receptor (Homo sapiens) (UniProt P41143); conditions: Compound concentration 10.0 uM
# [36] = molecular target: Receptor-type tyrosine-protein kinase FLT3 (Homo sapiens) (UniProt P36888)
# Chain of Receptor-type tyrosine-protein kinase FLT3 (Homo sapiens) (P36888 whole entry): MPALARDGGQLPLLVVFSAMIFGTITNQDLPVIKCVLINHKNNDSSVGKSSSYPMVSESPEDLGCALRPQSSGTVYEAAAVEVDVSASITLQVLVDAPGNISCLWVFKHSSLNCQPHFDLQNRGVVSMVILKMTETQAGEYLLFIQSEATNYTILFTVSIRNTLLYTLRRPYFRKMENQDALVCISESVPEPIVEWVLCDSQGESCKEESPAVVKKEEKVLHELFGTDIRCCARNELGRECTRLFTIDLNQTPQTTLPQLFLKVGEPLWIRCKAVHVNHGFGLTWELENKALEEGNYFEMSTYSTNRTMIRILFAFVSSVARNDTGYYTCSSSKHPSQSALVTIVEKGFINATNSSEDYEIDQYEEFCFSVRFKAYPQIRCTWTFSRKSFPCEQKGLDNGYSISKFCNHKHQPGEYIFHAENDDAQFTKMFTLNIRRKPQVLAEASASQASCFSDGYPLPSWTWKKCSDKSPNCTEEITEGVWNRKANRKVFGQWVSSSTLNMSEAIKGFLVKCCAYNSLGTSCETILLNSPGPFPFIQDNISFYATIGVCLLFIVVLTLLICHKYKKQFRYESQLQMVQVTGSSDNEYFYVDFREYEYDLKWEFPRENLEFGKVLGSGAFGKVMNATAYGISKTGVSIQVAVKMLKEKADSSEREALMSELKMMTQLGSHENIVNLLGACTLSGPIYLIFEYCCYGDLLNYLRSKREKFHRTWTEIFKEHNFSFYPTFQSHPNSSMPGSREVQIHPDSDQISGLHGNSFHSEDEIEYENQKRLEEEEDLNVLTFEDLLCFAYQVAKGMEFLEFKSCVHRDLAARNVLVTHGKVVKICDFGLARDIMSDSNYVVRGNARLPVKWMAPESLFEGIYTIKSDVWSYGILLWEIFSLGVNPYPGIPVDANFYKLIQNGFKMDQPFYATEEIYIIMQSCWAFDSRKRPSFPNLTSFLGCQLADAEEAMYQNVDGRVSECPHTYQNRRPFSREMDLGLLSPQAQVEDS
# [37] = molecular target: Platelet-derived growth factor receptor alpha (Homo sapiens) (UniProt P16234); conditions: Compound concentration 1.0 uM
# [38] = molecular target: Inhibitor of nuclear factor kappa-B kinase subunit beta (Homo sapiens) (UniProt O14920)
# Chain of Inhibitor of nuclear factor kappa-B kinase subunit beta (Homo sapiens) (O14920 whole entry): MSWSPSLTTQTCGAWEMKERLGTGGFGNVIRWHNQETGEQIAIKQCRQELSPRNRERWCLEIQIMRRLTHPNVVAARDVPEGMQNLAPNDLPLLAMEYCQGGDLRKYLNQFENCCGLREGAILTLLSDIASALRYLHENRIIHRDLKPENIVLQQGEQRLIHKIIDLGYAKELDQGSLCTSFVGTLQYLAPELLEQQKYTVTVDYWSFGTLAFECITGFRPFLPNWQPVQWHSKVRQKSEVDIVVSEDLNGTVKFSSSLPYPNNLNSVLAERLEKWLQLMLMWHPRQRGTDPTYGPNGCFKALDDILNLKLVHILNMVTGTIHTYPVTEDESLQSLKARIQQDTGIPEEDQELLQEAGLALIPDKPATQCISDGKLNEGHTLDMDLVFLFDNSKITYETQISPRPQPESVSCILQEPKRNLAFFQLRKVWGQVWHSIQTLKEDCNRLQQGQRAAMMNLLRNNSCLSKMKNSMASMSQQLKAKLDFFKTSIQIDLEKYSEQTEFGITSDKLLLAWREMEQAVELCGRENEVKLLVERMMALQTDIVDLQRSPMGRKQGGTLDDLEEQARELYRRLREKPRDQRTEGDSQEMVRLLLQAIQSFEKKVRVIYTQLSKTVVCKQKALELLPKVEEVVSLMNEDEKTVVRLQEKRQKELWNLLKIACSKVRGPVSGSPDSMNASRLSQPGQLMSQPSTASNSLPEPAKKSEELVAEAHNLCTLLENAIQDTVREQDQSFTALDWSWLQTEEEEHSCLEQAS
# [39] = molecular target: Serotonin 2 (5-HT2) receptor (Rattus norvegicus) (UniProt P30994+P08909+P14842)
# [40] = molecular target: cAMP-dependent protein kinase catalytic subunit gamma (Homo sapiens) (UniProt P22612); assay: PRKACG (PRKAC GAM Invitrogen Lab (UK) kinase screen (BI); conditions: Compound concentration 1.0 uM
# [41] = molecular target: Tyrosine-protein kinase Fer (Homo sapiens) (UniProt P16591); conditions: Compound concentration 1.0 uM
# [42] = molecular target: Mitogen-activated protein kinase kinase kinase kinase 1 (Homo sapiens) (UniProt Q92918); conditions: Compound concentration 1.0 uM
# [43] = Compound concentration 100.0 uM
# Chain of Vasopressin V1a receptor (Homo sapiens) (P37288 whole entry, looked up): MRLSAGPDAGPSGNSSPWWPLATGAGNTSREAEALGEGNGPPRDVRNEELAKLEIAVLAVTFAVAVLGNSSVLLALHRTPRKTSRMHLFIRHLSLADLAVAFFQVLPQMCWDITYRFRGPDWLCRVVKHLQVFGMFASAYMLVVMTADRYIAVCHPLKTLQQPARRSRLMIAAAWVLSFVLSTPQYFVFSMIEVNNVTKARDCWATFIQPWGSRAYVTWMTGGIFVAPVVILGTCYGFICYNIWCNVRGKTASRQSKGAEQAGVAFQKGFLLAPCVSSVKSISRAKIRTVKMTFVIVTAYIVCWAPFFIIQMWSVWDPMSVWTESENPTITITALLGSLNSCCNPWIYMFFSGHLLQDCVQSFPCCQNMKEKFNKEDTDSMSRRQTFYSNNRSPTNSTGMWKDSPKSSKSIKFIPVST
smiles,measurement,setting,value
CCC(F)(F)c1cc(N2CCC(S(C)(=O)=O)CC2)nc2sc(C(N)=O)c(N)c12 [BI-605906],residual activity,[1],90%
same,residual activity,[2]; Compound concentration 10.0 uM,99%
same,residual activity,[2]; [43],89%
same,residual activity,[3],103%
same,residual activity,[4],96%
same,inhibition,[5],2.35%
same,inhibition,[6],8%
same,residual activity,[7],34%
same,residual activity,[8]; Compound concentration 1.0 uM,93%
same,residual activity,[8]; Compound concentration 10.0 uM,63%
same,residual activity,[9],99%
same,residual activity,[10],94%
same,residual activity,[11],82%
same,residual activity,[12]; Compound concentration 1.0 uM,90%
same,residual activity,[12]; Compound concentration 10.0 uM,87%
same,residual activity,[13],91%
same,residual activity,[14],96%
same,residual activity,[15],98%
same,residual activity,[16],99%
same,inhibition,[17],13.4%
same,residual activity,[18]; Compound concentration 1.0 uM,95%
same,residual activity,[18]; Compound concentration 10.0 uM,77%
same,residual activity,[19],63.2%
same,residual activity,[20],86%
same,residual activity,[21],89%
same,residual activity,[22],68%
same,residual activity,[23],94%
same,residual activity,[24],99%
same,residual activity,[25],98%
same,residual activity,[26]; Compound concentration 10.0 uM,93%
same,residual activity,[26]; [43],108%
same,inhibition,[27],5.18%
same,residual activity,[28],105%
same,residual activity,[29],101%
same,residual activity,[30],101%
same,residual activity,[31],103%
same,residual activity,[32],98%
same,residual activity,[33],89%
same,residual activity,[34],98%
same,inhibition,[35],3.97%
same,residual activity,[36]; Compound concentration 1.0 uM,71%
same,residual activity,[36]; Compound concentration 10.0 uM,38%
same,residual activity,[37],93%
same,residual activity,[38]; Compound concentration 1.0 uM,13.5%
same,residual activity,[38]; Compound concentration 10.0 uM,-1.5%
same,residual activity,[39]; Compound concentration 10.0 uM,97%
same,residual activity,[39]; [43],95%
same,residual activity,[40],103%
same,residual activity,[41],95%
same,residual activity,[42],82%

# — ChEMBL document CHEMBL4800722, “Data for DCP probe BI 605906” (2021)
